Experimental data from publication PMC3914206.

Experiments:
panel of 442 kinases [1] = target: T1, panel of 442 kinases (Homo sapiens, UniProt Q9Y2U5); assay type: binding; conditions: Compound Concentration 10 µM
T1 construct: purchased KINOMEscan
T1 sequence (Q9Y2U5 1-619): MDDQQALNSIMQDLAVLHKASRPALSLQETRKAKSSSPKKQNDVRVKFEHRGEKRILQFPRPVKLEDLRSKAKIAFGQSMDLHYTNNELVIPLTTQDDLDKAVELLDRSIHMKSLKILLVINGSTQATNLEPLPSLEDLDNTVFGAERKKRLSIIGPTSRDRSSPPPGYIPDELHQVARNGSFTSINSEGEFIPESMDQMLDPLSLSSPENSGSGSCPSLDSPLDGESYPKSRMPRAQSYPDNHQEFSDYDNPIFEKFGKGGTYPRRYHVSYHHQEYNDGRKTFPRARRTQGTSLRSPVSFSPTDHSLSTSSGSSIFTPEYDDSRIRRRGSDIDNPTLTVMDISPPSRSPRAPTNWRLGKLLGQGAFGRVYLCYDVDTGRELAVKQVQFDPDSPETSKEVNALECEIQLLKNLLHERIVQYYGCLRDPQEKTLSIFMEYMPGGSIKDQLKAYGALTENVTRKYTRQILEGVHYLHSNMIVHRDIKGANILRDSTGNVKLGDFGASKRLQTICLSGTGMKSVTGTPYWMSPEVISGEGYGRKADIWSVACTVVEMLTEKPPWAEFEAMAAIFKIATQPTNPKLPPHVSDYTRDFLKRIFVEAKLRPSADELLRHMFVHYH
Description: (§1) We assessed the selectivity of members of this scaffold using the KINOMEscan methodology across a near comprehensive panel of 442 kinases [[18,27]].

panel of 442 kinases [2] = target: T2, panel of 442 kinases (Homo sapiens, UniProt Q9NYY3); assay type: binding; conditions: Compound Concentration 10 µM
T2 construct: purchased KINOMEscan
Description: as §1

T2 sequence (Q9NYY3 whole entry): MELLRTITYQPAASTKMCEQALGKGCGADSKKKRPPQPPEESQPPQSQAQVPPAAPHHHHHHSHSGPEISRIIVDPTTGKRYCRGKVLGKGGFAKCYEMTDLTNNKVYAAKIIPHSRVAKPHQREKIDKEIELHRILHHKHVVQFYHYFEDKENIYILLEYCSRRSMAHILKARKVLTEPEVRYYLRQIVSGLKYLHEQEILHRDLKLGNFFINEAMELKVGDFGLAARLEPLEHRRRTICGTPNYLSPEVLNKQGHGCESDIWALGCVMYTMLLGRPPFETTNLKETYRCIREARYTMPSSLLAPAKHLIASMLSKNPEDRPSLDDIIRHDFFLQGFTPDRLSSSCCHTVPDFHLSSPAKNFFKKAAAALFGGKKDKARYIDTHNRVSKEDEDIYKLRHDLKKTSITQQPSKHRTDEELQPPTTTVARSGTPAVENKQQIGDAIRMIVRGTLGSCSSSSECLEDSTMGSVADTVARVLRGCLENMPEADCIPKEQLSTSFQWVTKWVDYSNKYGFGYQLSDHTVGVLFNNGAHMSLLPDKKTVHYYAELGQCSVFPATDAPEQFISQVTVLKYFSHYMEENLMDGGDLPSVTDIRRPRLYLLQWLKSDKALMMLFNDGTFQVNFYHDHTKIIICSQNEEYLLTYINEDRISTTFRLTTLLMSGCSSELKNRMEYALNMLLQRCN

Q: Which “KINOMEscan: MAP3K2” value (panel of 442 kinases [1]) does the source give for `CCOc1cc(C(=O)N2CCC(N3CCN(C)CC3)CC2)ccc1Nc1ncc2c(n1)N(C1CCCC1)c1ccccc1C(=O)N2C` [Compound 26] here?
A: The value was 100.

Q: And the “KINOMEscan: PLK2” value (panel of 442 kinases [2])?
A: Its value is 97.

Q: Which results are given for `COc1cc(C(=O)N2CCC(N3CCN(C)CC3)CC2)ccc1Nc1ncc2c(n1)N(C1CCCC1)c1ccccc1C(=O)N2C` [Compound 25, 11-cyclopentyl-2-((2-methoxy-4-(4-(4-methylpiperazin-1-yl)piperidine-1-carbonyl)phenyl)amino)-5-methyl-5H-benzo[e]pyrimido[5,4-b][1,4]diazepin-6(11H)-one]?
A: KINOMEscan: MAP3K2 (panel of 442 kinases [1]): 90; KINOMEscan: PLK2 (panel of 442 kinases [2]): 100

Q: `COc1cc(C(=O)N2CCC(N3CCN(C)CC3)CC2)ccc1Nc1ncc2c(n1)N1CCc3cccc(c31)C(=O)N2C` [Compound 24] was tested. Which “KINOMEscan: PLK2” value (panel of 442 kinases [2]) did it give?
A: The value was 8.8.

Q: How did the “KINOMEscan: MAP3K2” value (panel of 442 kinases [1]) turn out when `COc1cc(C(=O)N2CCC(N3CCN(C)CC3)CC2)ccc1Nc1ncc2c(n1)N(C)c1ccccc1C(=O)N2C` [15 (LRRK2-IN-1)] was run?
A: Its value is 97.

Q: And the “KINOMEscan: PLK2” value (panel of 442 kinases [2])?
A: Its value is 100.
